Tested on: NOMO1
Test: cell viability relative to DMSO control; higher = less cytotoxic
Conditions: 48 h
Procedure, shortened: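 Viability is a per-plate percentage relative to DMSO wells, with cell-free wells as background. CellTiter-Glo One luminescence was read after 48 h at 37°C on 1536-well plates (5 μl) of NOMO1 or SEM (500 cells/well) or P12-Ichikawa (1000 cells/well) leukemia cells. The cells had been adapted for at least four passages in each medium and pin-dosed with library compounds in DMSO from 47 μM to 0.79 nM in 11 threefold steps.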

[1] = HPLM + 10% dialyzed FBS, 0.000781 µM
[2] = HPLM + 10% dialyzed FBS, 0.00234 µM
[3] = HPLM + 10% dialyzed FBS, 0.00702 µM
[4] = HPLM + 10% dialyzed FBS, 0.0211 µM
[5] = HPLM + 10% dialyzed FBS, 0.0632 µM
[6] = HPLM + 10% dialyzed FBS, 0.19 µM
[7] = HPLM + 10% dialyzed FBS, 0.569 µM
[8] = HPLM + 10% dialyzed FBS, 1.71 µM
[9] = HPLM + 10% dialyzed FBS, 5.12 µM
[10] = HPLM + 10% dialyzed FBS, 15.4 µM
[11] = HPLM + 10% dialyzed FBS, 46.1 µM
[12] = RPMI 5 mM glucose + 10% FBS, 0.000781 µM
[13] = RPMI 5 mM glucose + 10% FBS, 0.00234 µM
[14] = RPMI 5 mM glucose + 10% FBS, 0.00702 µM
[15] = RPMI 5 mM glucose + 10% FBS, 0.0211 µM
[16] = RPMI 5 mM glucose + 10% FBS, 0.0632 µM
[17] = RPMI 5 mM glucose + 10% FBS, 0.19 µM
[18] = RPMI 5 mM glucose + 10% FBS, 0.569 µM
[19] = RPMI 5 mM glucose + 10% FBS, 1.71 µM
[20] = RPMI 5 mM glucose + 10% FBS, 5.12 µM
[21] = RPMI 5 mM glucose + 10% FBS, 15.4 µM
[22] = RPMI 5 mM glucose + 10% FBS, 46.1 µM
[23] = RPMI 5 mM glucose + 10% dialyzed FBS, 0.000781 µM
[24] = RPMI 5 mM glucose + 10% dialyzed FBS, 0.00234 µM
[25] = RPMI 5 mM glucose + 10% dialyzed FBS, 0.00702 µM
[26] = RPMI 5 mM glucose + 10% dialyzed FBS, 0.0211 µM
[27] = RPMI 5 mM glucose + 10% dialyzed FBS, 0.0632 µM
[28] = RPMI 5 mM glucose + 10% dialyzed FBS, 0.19 µM
[29] = RPMI 5 mM glucose + 10% dialyzed FBS, 0.569 µM
[30] = RPMI 5 mM glucose + 10% dialyzed FBS, 1.71 µM
[31] = RPMI 5 mM glucose + 10% dialyzed FBS, 5.12 µM
[32] = RPMI 5 mM glucose + 10% dialyzed FBS, 15.4 µM
[33] = RPMI 5 mM glucose + 10% dialyzed FBS, 46.1 µM

Row | SMILES | cell viability [1] | cell viability [2] | cell viability [3] | cell viability [4] | cell viability [5] | cell viability [6] | cell viability [7] | cell viability [8] | cell viability [9] | cell viability [10] | cell viability [11] | cell viability [12] | cell viability [13] | cell viability [14] | cell viability [15] | cell viability [16] | cell viability [17] | cell viability [18] | cell viability [19] | cell viability [20] | cell viability [21] | cell viability [22] | cell viability [23] | cell viability [24] | cell viability [25] | cell viability [26] | cell viability [27] | cell viability [28] | cell viability [29] | cell viability [30] | cell viability [31] | cell viability [32] | cell viability [33]
1 | Cc1cc(C(C)(C)C)c(O)c(C)c1CC1=NCCN1 | 90.1% | 99.5% | 103% | 103% | 101% | 108% | 105% | 107% | 83.8% | 55% | 43.4% | 91.6% | 97.3% | 99.1% | 90% | 86.2% | 105% | 90.8% | 97.8% | 88.9% | 56.4% | 43.2% | 78% | 85.6% | 91.8% | 97.4% | 100% | 100% | 97% | 93.2% | 101% | 61.2% | 54.1%
2 | OC[C@H]1OCC(O1)[N@@]2C=CC(N)=NC2=O (some centres undefined) | 115% | 127% | 101% | 105% | 117% | 113% | 131% | 86.7% | 121% | 126% | 94.8% | 114% | 123% | 118% | 116% | 114% | 127% | 118% | 113% | 122% | 108% | 108% | 103% | 133% | 112% | 109% | 125% | 111% | 117% | 113% | 120% | 113% | 113%
3 | C#C[C@]1(O)CC[C@H]2[C@@H]3CCc4cc(O)ccc4[C@H]3CC[C@@]21C | 101% | 116% | 104% | 104% | 102% | 105% | 109% | 96% | 97.9% | 68% | 51.3% | 97.7% | 93.9% | 99.9% | 95.9% | 105% | 91.9% | 87% | 91.5% | 89% | 85% | 80.4% | 97.2% | 103% | 87.4% | 101% | 99.4% | 106% | 92.4% | 78.3% | 89.1% | 71.3% | 48.4%
4 | OC1CCC(Nc2ncc3nc(Nc4c(F)cc(F)cc4F)n([C@@H]4CCOC4)c3n2)CC1 (some centres undefined) | 112% | 119% | 131% | 143% | 126% | 142% | 143% | 134% | 141% | 131% | 128% | 106% | 113% | 108% | 113% | 107% | 118% | 105% | 110% | 125% | 115% | 121% | 102% | 119% | 115% | 119% | 114% | 128% | 122% | 125% | 135% | 131% | 126%
5 | O=C(O)c1ccc2c(c1)nc(Nc1cccc(Cl)c1)c1ccncc12 | 114% | 109% | 131% | 115% | 114% | 119% | 125% | 114% | 73.8% | 49.2% | 78.1% | 93% | 93.5% | 103% | 103% | 94.6% | 103% | 92.7% | 90.8% | 83.7% | 65.6% | 79.2% | 100% | 105% | 101% | 101% | 107% | 99.1% | 91.9% | 101% | 81.5% | 47.2% | 77.5%
6 | COc1ccc(-c2ccc3c(N4CCOC[C@@H]4C)nc(N4CCOC[C@@H]4C)nc3n2)cc1CO | 93.6% | 76.5% | 93.1% | 82.1% | 74.5% | 64.6% | 58.7% | 55.1% | 48% | 9.86% | 3.58% | 103% | 75.7% | 94% | 95.6% | 90.4% | 84.5% | 75.1% | 72.4% | 63.4% | 41.7% | 4.25% | 102% | 63.9% | 98.6% | 86% | 85.9% | 69% | 64% | 70.5% | 57.4% | 52.4% | 5.83%
7 | C[S+]([O-])(=O)C1=CC=C(C=C1)C/2=C(/C(=O)OC2)C3=CC=CC=C3 | – | – | – | – | – | – | – | – | – | – | – | 106% | 110% | 118% | 109% | 120% | 115% | 118% | 119% | 114% | 108% | 123% | 107% | 118% | 106% | 111% | 121% | 118% | 123% | 120% | 108% | 131% | 129%
8 | COc1cc2nccc(Oc3ccc(NC(=O)NC4CC4)c(Cl)c3)c2cc1C(N)=O | 129% | 120% | 111% | 98.7% | 145% | 100% | 114% | 113% | 111% | 78.1% | 17.2% | – | – | – | – | – | – | – | – | – | – | – | – | – | – | – | – | – | – | – | – | – | –
9 | CC(C)C[C@H](NC(=O)[C@H](CCc1ccccc1)NC(=O)CN1CCOCC1)C(=O)N[C@@H](Cc1ccccc1)C(=O)N[C@@H](CC(C)C)C(=O)[C@@]1(C)CO1 | 94.7% | 95.3% | 103% | 99.4% | 7.57% | 8.63% | 5.74% | 4.23% | 1.47% | 0.357% | 0.4% | 77.8% | 88.9% | 90% | 83.9% | 6.13% | 6.37% | 4.68% | 3.7% | 2.13% | -0.195% | -0.384% | 90.9% | 93.3% | 98.5% | 92% | 8.53% | 8.08% | 5.45% | 3.98% | 2.7% | 0.526% | -0.204%

Source: the supplement of paper PMC11451515
